Structures are written as SMILES.

Assay [1] deals with MC38 allograft. As to the kind of experiment: In vivo Compound 1 combination treatment, allograft. On the set-up: species or system B6 mice. The following applies: Cmpd1 + αPD-L1; not significant vs single-agent PD-L1.
The test system of assay [2] is CT26 spheroids (lacking immune cells). In words: Cytokine profiling of cell line spheroids lacking immune cells. It counts as cell-based, murine. To be noted: Day 1, 3, 6 vs vehicle. As to the method:
(§1) Fresh tumor specimens (murine and human patients) were received in media (DMEM) on ice and minced in a 10 cm dish (on ice) using sterile forceps and scalpel. Minced tumor was resuspended in DMEM (4.5 mM glucose, […] sodium pyruvate, 1:100 penicillin-streptomycin) (Coming CellGro, Manassas, VA)+10% FBS (Gemini Bio-Products, West Sacramento, CA), 100 U/mL collagenase type IV (Life Technologies, Carlsbad, CA), and 15 mM HEPES (Life Technologies, Carlsbad, CA), except for CT26 tumors that were prepared in RPMI. Samples were pelleted and resuspended in 10-20 mL media. Red blood cells were removed from visibly bloody samples using RBC Lysis Buffer (Boston Bio-Products, Ashland, MA). […]
(§2) Two multiplex assays were performed utilizing a bead-based immunoassay approach, the Bio-Plex Pro™ Human Cytokine 40-plex Assay (Cat #171AK99MR2) and Bio-Plex Pro™ Mouse Cytokine Panel 1, 23-plex (Cat #M60009RDPD) on a Bio-plex 200 system (Cat #171000201). […] Fold changes relative to the MDOT/PDOT control were calculated and plotted as log 2FC. Lower and upper limits of quantitation (LLOQ/ULOQ) were imputed from standard curves for cytokines above or below detection. […]

For assay [3], the system named is human CD4+ and CD8+ T cells. In words: IFNγ in supernatant of anti-CD3/anti-CD28 stimulated T cells. The class given is cell-based. The following applies: dose-titration, 96 hours. The method, then:
Freshly isolated human CD4+ and CD8+ T cells were obtained from AllCells (Alameda, CA, USA). Cells were spun down and resuspended in serum free Xvivol5 media (Lonza Walkersville, Inc., Chicago, IL, USA) supplemented with 5 ng/mL […] and incubated overnight at 37° C. Cells were plated on anti-CD3 coated plates (5 μg/mL OKT3, eBioscience™, Dallas, TX, USA, overnight) with 2 μg/mL anti-CD28 (eBioscience™, Dallas, TX, USA). Cells are treated in replicate plates with a dose-titration of Compound 1 for 24 hours for IL-2 and 96 hours for IFNT. IL-2 and IFNγ in the supernatant were measured using single- or multi-plex immunoassay (Mesoscale Discovery, Rockville, MD, USA). Jurkat T cell leukemia cells (clone E61 obtained from ATCC) plated on anti-CD3 coated plates were treated with a dose titration of Compound 1 for 24 hours. IL-2 in the supernatant was measured as described above.

Assay [4] relates to B16F10 MDOTS. As to the kind of experiment: Bead-based cytokine profiling of MDOTS conditioned media. It counts as cell-based, murine. To be noted: Cmpd1 1 μM ± αPD-1. As to the method: as §1, §2
Assay [5] deals with CT26 MDOTS. The assay is described as above. It counts as cell-based, murine. To be noted: Cmpd1 1 μM ± anti-PD-1 10 μg/mL. The method, then: as §1, §2

`N#Cc1cc(-c2ncnc(Nc3ccc(N4CCN(C5COC5)CC4)cc3)n2)ccc1OC1CCOCC1` [Compound 1, 5-(4-((4-(4-(oxetan-3-yl)piperazin-1-yl)phenyl)amino)-1,3,5-triazin-2-yl)-2-((tetrahydro-2H-pyran-4-yl)oxy)benzonitrile]: in assay [1], the “in vivo survival, MC38 model, combination treatment” value is “enhanced”. Further, in assay [2], the “immune suppressive cytokine elaboration by CT26 cell line spheroids” value is reported as “effectively blocked”. Further, the “secretion of IFN-7 from purified CD4+ and CD8+ T cells” value in assay [3] is listed as “enhanced secretion”. Besides, in assay [4], the “G-CSF and related innate immune response cytokines in B16F10 MDOTS” value is “without concomitant induction”. The “levels of CCL4, CCL3, and IL-10 in CT26 MDOTS” value in assay [5] is listed as “Decreased levels”.

The values above are taken from US12116636B2, “Methods for evaluating tumor cell spheroids using 3D microfluidic cell culture device” (Dana-Farber Cancer Institute, Inc., priority 2017, dated 2024).
